From US20260294769A1, “ASCORBIC ACID DERIVATIVES AND COSMETIC THEREOF” (SEIWA KASEI COMPANY, LIMITED, priority 2023, published 2026) come the findings set out here.

Each structure is given as a SMILES string. Where two headings read alike, the source gives them in different places. Where only a bound is given, the exact number is not on record here.

In series [1] the test system is Normal human dermal fibroblasts (NHDF). In words: Hyaluronic acid production promoting effect (ELISA of hyaluronic acid in supernatant). The format is cell-based. The settings on record: 10 mM or less, 48 hours, control group set to 100%, N=3. Here is the method: Normal human dermal fibroblasts (NHDF) were prepared in D-MEM containing 5% (v/v) fetal bovine serum to a cell density of 2.5×10^4 cells/well, and then pre-incubated on a 96-well plate for 24 hours. After removing the medium, samples prepared in serum-free D-MEM were added to each well and cultured for 48 hours. After the culture was completed, the amount of hyaluronic acid in the supernatant was quantified by ELISA. Measurements were performed in triplicate (N=3).
The amount of hyaluronic acid produced when the sample was measured at a concentration of 10 mM or less was compared with that of the control group, and the results (% values when the control group is set to 100%) are shown in Tables 18 to 20 based on the following criteria.

Series [2] is described as follows: Stability Test-2: odor of cream stored at 50° C. It counts as physicochemical. The settings on record: 10 panelists. The text has this: • Evaluation was made by 10 panelists according to the following criteria. • 3: Almost odorless. • 2: There is a slight strange odor. • 1: A strong odor is detected. • Based on the results of the above evaluation, the following classification was made: • ◯: Total score of 10 panelists is 25 or more • Δ: Total score of 10 panelists is 16-24 • x: The total score of 10 panelists is 15 or less
(§1) For each of the samples of Synthesis Examples 9 to 32, (a) and (b) shown in Table 12 were each heated and mixed. After cooling, (c) shown in Table 12 was added to prepare a cream with a pH of 7 or 9. […] The odor and coloration were also evaluated according to the same method and criteria as in Test Example 1. The results regarding the residual rate are shown in Tables 13 and 14, and the results regarding the odor and coloration are shown in Tables 15 and 16.

Series [3] can be described thus: Stability Test-2: coloration of cream stored at 50° C. It counts as physicochemical. The settings on record: 10 panelists.
Description: • Evaluation was made by 10 panelists according to the following criteria. • 3: Almost no change compared to immediately after preparation. • 2: Color changes compared to immediately after preparation. • 1: Strongly colored compared to immediately after preparation. • Based on the results of the above evaluation, the following classification was made:
as §1

Series [4] is described as follows: Stability Test-2: residual rate in cream of pH 7 or 9 stored at 50° C. It counts as physicochemical. Here is the method:
as §1

Series [5] is described as follows: Stability Test-1: residual rate of 1% aqueous solutions stored at 50° C. (HPLC). The settings on record: water, 1% aqueous solution; for remaining at 336 h: after 2 weeks, read-out: Residual Rate; for remaining at 672 h: after 4 weeks. The format is physicochemical. The method, then: For each of the samples of Synthesis Examples 1 to 6, 1% aqueous solutions were adjusted to pH 3, 5, 7, 8, and 9 with a dilute potassium hydroxide aqueous solution, and then placed in 50 mL screw tubes and sealed. […] Furthermore, the odor and coloration of the samples adjusted to pH 7 were evaluated based on the following methods and criteria, and the results are shown in Table 11.
• ⊚: 80% or more • ◯: 50% or more, less than 80% • Δ: 30% or more, less than 50% • x: Less than 30%

Where [6] appears, read: cream pH 7, 50° C., after 2 weeks, 20160 min.
Where [7] appears, read: cream pH 7, 50° C., after 4 weeks, 40320 min.
[8] abbreviates: cream pH 9, 50° C., after 2 weeks, 20160 min.
Where [9] appears, read: cream pH 9, 50° C., after 4 weeks, 40320 min.

Take `CCCCCCCCCCCCCCCC(=O)OC[C@H](O)[C@H]1OC(=O)C(OP(=O)(O)O)=C1O` [Ascorbyl phosphate 3Na palmitate, reference compound]: in series [1], the “Hyaluronic acid production-promoting effect” value is recorded as “± (<100%)”.

In the case of `CCCCCCCCC(CCCCCC)C(=O)OC[C@H](OC(=O)C(CCCCCC)CCCCCCCC)[C@H]1OC(=O)C(OC(=O)C(CCCCCC)CCCCCCCC)=C1OC(=O)C(CCCCCC)CCCCCCCC` (stereo partly shown) [Ascorbyl tetrahexyldecanoate, reference compound], the Odor result was “◯ (Total score of 10 panelists is 25 or more)” in series [2] (after 2 weeks) and “Δ (Total score of 10 panelists is 16-24)” in series [2] (after 4 weeks). Further, the Coloration result in series [3] (after 2 weeks) was “◯ (Total score of 10 panelists is 25 or more)”; in series [3] (after 4 weeks), “Δ (Total score of 10 panelists is 16-24)”. Also, the “Residual Rate” value in series [4] (setting [6]) is on record as “∘ (85% or more, less than 95%)”; in series [4] (setting [7]), “x (Less than 85%)”; in series [4] (setting [8]) it was “∘ (85% or more, less than 95%)”; in series [4] (setting [9]) it was “x (Less than 85%)”.

As to `O=C1O[C@H]([C@@H](O)CO)C(OCC(O)CO)=C1OCC(O)CO` (stereo partly shown) [Bisglyceryl ascorbic acid, reference compound], the remaining at 336 h in series [5] (pH 3, 50° C.) was ≥ 80%; in series [5] (pH 5, 50° C.), ≥ 80%; in series [5] (pH 7, 50° C.), < 30%; in series [5] (pH 8, 50° C.), < 30%; in series [5] (pH 9, 50° C.), < 30%. Also, the remaining at 672 h in series [5] (pH 3, 50° C.) was ≥ 80%; in series [5] (pH 5, 50° C.), ≥ 80%; in series [5] (pH 7, 50° C.), < 30%; in series [5] (pH 8, 50° C.), < 30%; in series [5] (pH 9, 50° C.), < 30%.

Take `CCCC(=O)OCC(O)C1OC(=O)C2=C1OCCCCO2` (stereo not shown) [Synthesis Example 9, 6-O-butanoyl-2,3-O-(1,4-butanediyl) ascorbic acid]: the Odor result was “◯ (Total score of 10 panelists is 25 or more)” in series [2] (after 2 weeks) and “Δ (Total score of 10 panelists is 16-24)” in series [2] (after 4 weeks). In addition, the Coloration entry in series [3] (after 2 weeks) and in series [3] (after 4 weeks) was “◯ (Total score of 10 panelists is 25 or more)” in each case. Moreover, in series [1], the “Hyaluronic acid production-promoting effect” value is listed as “++ (120%<)”. For the same molecule, the “Residual Rate” value in series [4] (setting [6]), in series [4] (setting [7]), in series [4] (setting [8]) and in series [4] (setting [9]) was “⊚ (95% or more)” each time.

With `CCCCCCCC(=O)OCC(O)C1OC(=O)C2=C1OCCCCO2` (stereo not shown) [Synthesis Example 11, 6-O-octanoyl-2,3-O-(1,4-butanediyl) ascorbic acid], the Odor result in series [2] (after 2 weeks) was “◯ (Total score of 10 panelists is 25 or more)”; in series [2] (after 4 weeks), “Δ (Total score of 10 panelists is 16-24)”. Moreover, the Coloration result in series [3] (after 2 weeks) and in series [3] (after 4 weeks) was “◯ (Total score of 10 panelists is 25 or more)” throughout. The “Hyaluronic acid production-promoting effect” value in series [1] is on record as “++ (120%<)”. Also, the “Residual Rate” value in series [4] (setting [6]) is listed as “⊚ (95% or more)”; in series [4] (setting [7]) it was “⊚ (95% or more)”; in series [4] (setting [8]) it was “⊚ (95% or more)”; in series [4] (setting [9]), “∘ (85% or more, less than 95%)”.

Take `CCCCCCCCCCCCCCCC(=O)OCC(OC(=O)CCCCCCCCCCCCCCC)C1OC(=O)C2=C1OCCCCO2` (stereo not shown) [Synthesis Example 16, 5,6-O-dipalmitoyl-2,3-O-(1,4-butanediyl) ascorbic acid]: the Odor result in series [2] (after 2 weeks) was “◯ (Total score of 10 panelists is 25 or more)”; in series [2] (after 4 weeks), “Δ (Total score of 10 panelists is 16-24)”. Also, the Coloration entry in series [3] (after 2 weeks) and in series [3] (after 4 weeks) was “◯ (Total score of 10 panelists is 25 or more)” throughout. Also, in series [1], the “Hyaluronic acid production-promoting effect” value is listed as “++ (120%<)”. For the same molecule, the “Residual Rate” value in series [4] (setting [6]), in series [4] (setting [7]), in series [4] (setting [8]) and in series [4] (setting [9]) was “⊚ (95% or more)” throughout.

With `CC(C)CCCCCCCCCCCCCCC(=O)OC[C@H](OC(=O)CCCCCCCCCCCCCCC(C)C)[C@H]1OC(=O)C2=C1OCCCCO2` [Synthesis Example 18, 5,6-O-diisostearoyl-2,3-O-(1,4-butanediyl) ascorbic acid], the Odor result in series [2] (after 2 weeks) is reported as “◯ (Total score of 10 panelists is 25 or more)”; in series [2] (after 4 weeks), “Δ (Total score of 10 panelists is 16-24)”. Besides, the Coloration entry in series [3] (after 2 weeks) and in series [3] (after 4 weeks) was “◯ (Total score of 10 panelists is 25 or more)” throughout. Moreover, the “Hyaluronic acid production-promoting effect” value in series [1] was “++ (120%<)”. Also, the “Residual Rate” value in series [4] (setting [6]), in series [4] (setting [7]), in series [4] (setting [8]) and in series [4] (setting [9]) was “⊚ (95% or more)” each time.

For `CCCCCCCC(=O)OC[C@H](OC(=O)CCC)[C@H]1OC(=O)C2=C1OCCCCO2` [Synthesis Example 19, 5-O-butanoyl-6-O-octanoyl-2,3-O-(1,4-butanediyl) ascorbic acid], the Odor entry in series [2] (after 2 weeks) was “◯ (Total score of 10 panelists is 25 or more)”; in series [2] (after 4 weeks) it was “Δ (Total score of 10 panelists is 16-24)”. The Coloration result in series [3] (after 2 weeks) and in series [3] (after 4 weeks) was “◯ (Total score of 10 panelists is 25 or more)” throughout. The “Residual Rate” value in series [4] (setting [6]), in series [4] (setting [7]), in series [4] (setting [8]) and in series [4] (setting [9]) was “⊚ (95% or more)” each time.

In the case of `CCCCCCCCCCCCCCCC(=O)OCC(OC(=O)CCC)C1OC(=O)C2=C1OCCCO2` (stereo not shown) [Synthesis Example 30, 5-O-butanoyl-6-O-palmitoyl-2,3-O-(1,3-propanediyl) ascorbic acid], the Odor result is “◯ (Total score of 10 panelists is 25 or more)” in series [2] (after 2 weeks) and “Δ (Total score of 10 panelists is 16-24)” in series [2] (after 4 weeks). The Coloration entry in series [3] (after 2 weeks) and in series [3] (after 4 weeks) was “◯ (Total score of 10 panelists is 25 or more)” each time. For the same molecule, the “Residual Rate” value in series [4] (setting [6]), in series [4] (setting [7]), in series [4] (setting [8]) and in series [4] (setting [9]) was “⊚ (95% or more)” throughout.

With `CC(C)CCCCCCCCCCCCCCC(=O)OCC(OC(=O)CCCCCCCCCCCCCCC(C)C)C1OC(=O)C2=C1OCCO2` (stereo not shown) [Synthesis Example 32, 5,6-O-diisostearoyl-2,3-O-(1,2-ethanediyl) ascorbic acid], the values for the Odor result in series [2] (after 2 weeks) and in series [2] (after 4 weeks) were “◯ (Total score of 10 panelists is 25 or more)” and “Δ (Total score of 10 panelists is 16-24)”, respectively. For the same molecule, the Coloration entry in series [3] (after 2 weeks) and in series [3] (after 4 weeks) was “◯ (Total score of 10 panelists is 25 or more)” throughout. In addition, the “Residual Rate” value in series [4] (setting [6]), in series [4] (setting [7]), in series [4] (setting [8]) and in series [4] (setting [9]) was “⊚ (95% or more)” each time.

For the molecule `CC1(C)OCC(C2OC(=O)C3=C2OCCCCO3)O1` (stereo not shown) [Synthesis Example 35, 5,6-O-isopropylidene-2,3-O-(1,4-butanediyl) ascorbic acid], the “Hyaluronic acid production-promoting effect” value in series [1] is “++ (120%<)”.

For the molecule `CC1(C)OCC(C2OC(=O)C3=C2OCCCO3)O1` (stereo not shown) [Synthesis Example 36, 5,6-O-isopropylidene-2,3-O-(1,3-propanediyl) ascorbic acid], the “Hyaluronic acid production-promoting effect” value in series [1] is given as “++ (120%<)”.

Consider `O=C1OC(C2COC(c3ccccc3)O2)C2=C1OCCCO2` (stereo not shown) [Synthesis Example 38, 5,6-O-(phenylmethylene)-2,3-O-(1,3-propanediyl) ascorbic acid], for which the “Hyaluronic acid production-promoting effect” value in series [1] is listed as “++ (120%<)”.
